Among the data in ChEMBL document CHEMBL5291721, “A preclinical secondary pharmacology resource illuminates target-adverse drug reaction associations of marketed drugs” (Nat Commun, 2023) are AC50 values, retold here.

Some results are limits rather than exact numbers.

The target in experiment [1] is Voltage-dependent L-type calcium channel subunit alpha-1C (Rattus norvegicus, UniProt P22002). The class given is functional.
The target in experiment [2] is T1, Gastrin/cholecystokinin type B receptor (Homo sapiens, UniProt P32239).
T1 sequence (P32239 whole entry): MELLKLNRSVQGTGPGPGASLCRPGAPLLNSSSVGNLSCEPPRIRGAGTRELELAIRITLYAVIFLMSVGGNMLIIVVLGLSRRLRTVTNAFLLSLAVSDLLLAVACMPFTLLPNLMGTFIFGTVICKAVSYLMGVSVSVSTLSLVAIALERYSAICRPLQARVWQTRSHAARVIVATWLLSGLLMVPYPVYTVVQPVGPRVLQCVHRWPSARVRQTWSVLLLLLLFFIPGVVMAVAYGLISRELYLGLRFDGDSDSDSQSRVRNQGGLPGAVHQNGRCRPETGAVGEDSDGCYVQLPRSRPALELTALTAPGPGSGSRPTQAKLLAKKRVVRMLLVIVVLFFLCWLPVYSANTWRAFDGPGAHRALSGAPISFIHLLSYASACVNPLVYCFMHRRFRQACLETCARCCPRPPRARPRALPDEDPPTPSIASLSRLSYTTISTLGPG

The target in experiment [3] is T2, Alpha-1A adrenergic receptor (Homo sapiens, UniProt P35348).
T2 sequence (P35348 whole entry): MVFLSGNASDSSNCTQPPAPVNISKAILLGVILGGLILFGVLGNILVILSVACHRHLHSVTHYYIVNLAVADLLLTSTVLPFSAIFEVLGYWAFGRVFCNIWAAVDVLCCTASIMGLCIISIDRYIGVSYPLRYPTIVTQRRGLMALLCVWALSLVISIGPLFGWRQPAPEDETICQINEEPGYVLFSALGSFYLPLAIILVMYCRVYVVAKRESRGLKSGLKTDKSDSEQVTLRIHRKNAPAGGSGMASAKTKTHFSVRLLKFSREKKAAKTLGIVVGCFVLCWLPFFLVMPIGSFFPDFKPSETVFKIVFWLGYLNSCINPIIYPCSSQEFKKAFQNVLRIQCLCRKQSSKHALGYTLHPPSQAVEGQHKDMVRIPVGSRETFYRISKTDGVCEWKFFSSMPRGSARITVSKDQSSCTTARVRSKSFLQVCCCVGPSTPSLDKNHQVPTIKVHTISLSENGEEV
In kind it is functional, cell-based.

Experiment [4] concerns the target T3, Muscarinic acetylcholine receptor M2 (Homo sapiens, UniProt P08172).
T3 sequence (P08172 whole entry): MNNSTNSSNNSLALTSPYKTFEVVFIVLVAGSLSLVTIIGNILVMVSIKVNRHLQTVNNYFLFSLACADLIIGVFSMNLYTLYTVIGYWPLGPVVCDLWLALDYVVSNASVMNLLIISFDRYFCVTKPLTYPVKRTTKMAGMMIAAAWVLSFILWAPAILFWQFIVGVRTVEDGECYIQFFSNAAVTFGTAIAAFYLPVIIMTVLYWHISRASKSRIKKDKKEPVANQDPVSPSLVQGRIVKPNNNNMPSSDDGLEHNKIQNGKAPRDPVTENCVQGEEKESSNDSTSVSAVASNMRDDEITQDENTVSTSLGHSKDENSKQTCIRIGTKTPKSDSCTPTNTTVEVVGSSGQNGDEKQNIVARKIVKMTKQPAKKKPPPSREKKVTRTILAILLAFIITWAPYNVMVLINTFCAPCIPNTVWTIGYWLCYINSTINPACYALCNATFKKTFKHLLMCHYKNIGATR
In kind it is functional, cell-based.
Further: assay procedure not described here.

Voltage-dependent L-type calcium channel subunit alpha-1C, sequence (P22002 whole entry): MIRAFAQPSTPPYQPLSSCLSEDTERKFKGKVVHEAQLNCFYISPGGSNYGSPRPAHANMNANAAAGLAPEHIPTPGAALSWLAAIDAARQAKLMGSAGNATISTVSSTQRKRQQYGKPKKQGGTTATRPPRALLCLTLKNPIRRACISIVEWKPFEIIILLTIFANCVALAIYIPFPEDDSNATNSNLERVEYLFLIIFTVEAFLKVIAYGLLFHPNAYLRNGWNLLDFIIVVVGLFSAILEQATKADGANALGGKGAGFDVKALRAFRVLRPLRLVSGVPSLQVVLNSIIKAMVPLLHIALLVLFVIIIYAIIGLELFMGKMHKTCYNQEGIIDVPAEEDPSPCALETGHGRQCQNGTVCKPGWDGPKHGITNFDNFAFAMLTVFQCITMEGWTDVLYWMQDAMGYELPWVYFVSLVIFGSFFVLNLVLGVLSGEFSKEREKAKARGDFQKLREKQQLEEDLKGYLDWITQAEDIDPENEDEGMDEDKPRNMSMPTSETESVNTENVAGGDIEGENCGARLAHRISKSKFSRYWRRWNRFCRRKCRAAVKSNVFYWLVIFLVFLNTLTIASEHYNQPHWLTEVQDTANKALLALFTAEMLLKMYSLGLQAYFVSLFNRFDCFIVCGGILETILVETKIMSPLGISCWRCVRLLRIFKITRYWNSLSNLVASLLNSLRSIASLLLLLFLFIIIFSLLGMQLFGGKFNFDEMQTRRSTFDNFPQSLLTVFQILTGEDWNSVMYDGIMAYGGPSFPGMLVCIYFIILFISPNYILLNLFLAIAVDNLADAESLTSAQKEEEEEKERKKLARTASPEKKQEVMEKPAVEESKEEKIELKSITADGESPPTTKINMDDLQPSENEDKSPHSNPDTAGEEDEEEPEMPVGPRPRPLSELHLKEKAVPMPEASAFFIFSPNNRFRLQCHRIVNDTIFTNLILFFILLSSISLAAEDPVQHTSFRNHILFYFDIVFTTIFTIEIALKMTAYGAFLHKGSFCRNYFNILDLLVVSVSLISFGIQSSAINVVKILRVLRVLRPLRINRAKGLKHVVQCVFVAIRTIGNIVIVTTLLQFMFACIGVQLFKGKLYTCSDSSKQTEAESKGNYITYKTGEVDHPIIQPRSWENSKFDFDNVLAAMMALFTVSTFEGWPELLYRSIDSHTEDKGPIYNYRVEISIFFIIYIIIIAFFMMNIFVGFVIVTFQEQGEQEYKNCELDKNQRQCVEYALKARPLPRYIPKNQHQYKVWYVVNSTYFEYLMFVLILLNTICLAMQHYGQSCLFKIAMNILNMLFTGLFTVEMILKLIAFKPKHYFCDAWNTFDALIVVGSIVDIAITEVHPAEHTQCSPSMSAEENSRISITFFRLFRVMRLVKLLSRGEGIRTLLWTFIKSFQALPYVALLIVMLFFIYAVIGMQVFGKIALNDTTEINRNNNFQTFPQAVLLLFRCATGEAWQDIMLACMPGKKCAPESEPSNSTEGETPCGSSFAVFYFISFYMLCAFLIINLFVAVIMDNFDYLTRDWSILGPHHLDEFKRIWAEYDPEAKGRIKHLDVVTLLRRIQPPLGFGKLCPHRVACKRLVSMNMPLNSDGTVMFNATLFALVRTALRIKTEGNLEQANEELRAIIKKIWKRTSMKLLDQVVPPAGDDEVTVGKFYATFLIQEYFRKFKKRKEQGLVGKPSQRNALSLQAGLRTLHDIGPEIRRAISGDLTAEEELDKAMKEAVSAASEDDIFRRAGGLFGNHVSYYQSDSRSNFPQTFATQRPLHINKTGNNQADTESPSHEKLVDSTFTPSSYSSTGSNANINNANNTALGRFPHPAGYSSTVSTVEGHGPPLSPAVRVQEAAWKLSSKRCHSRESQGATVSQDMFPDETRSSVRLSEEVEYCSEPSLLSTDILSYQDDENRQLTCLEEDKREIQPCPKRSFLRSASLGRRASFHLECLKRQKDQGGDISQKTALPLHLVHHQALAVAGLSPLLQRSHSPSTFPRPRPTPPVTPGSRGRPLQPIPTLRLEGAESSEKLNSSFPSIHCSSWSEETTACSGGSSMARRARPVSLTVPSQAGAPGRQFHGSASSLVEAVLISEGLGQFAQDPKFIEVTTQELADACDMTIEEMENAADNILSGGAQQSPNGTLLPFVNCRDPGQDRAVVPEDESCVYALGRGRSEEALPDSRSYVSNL

For the compound `CCC[C@H](NC(=O)[C@@H]1[C@H]2CCC[C@H]2CN1C(=O)[C@@H](NC(=O)[C@@H](NC(=O)c1cnccn1)C1CCCCC1)C(C)(C)C)C(=O)C(=O)NC1CC1`, the AC50 (usually the concentration at which the activity in the assay is half-maximal) in experiment [1] was above 10 µM; in experiment [2], above 30 µM.
Consider `CC(=O)N[C@@H](CS)C(=O)O` [ACETYLCYSTEINE], for which the concentration at half-maximal activity (AC50) in experiment [2], in experiment [3] and in experiment [4] was above 30 µM each time.
As for `C=CCNc1nc(NCC=C)nc(N2CCN(C(c3ccc(F)cc3)c3ccc(F)cc3)CC2)n1` [ALMITRINE], the half-maximal activity concentration (AC50) in experiment [1], in experiment [2] and in experiment [4] was above 30 µM throughout.
On to `CN1CCC(=C2c3ccccc3CCc3cccnc32)CC1` [AZATADINE], for which the AC50 in experiment [1] was above 10 µM; in experiment [2], above 30 µM; in experiment [3], above 30 µM; in experiment [4], 0.08 µM.
For the compound `CC(C)COCC(CN(Cc1ccccc1)c1ccccc1)N1CCCC1` (stereo not drawn) [BEPRIDIL], the half-maximal activity concentration (AC50) in experiment [1] is 24 µM; in experiment [2], above 30 µM; in experiment [4], above 30 µM.
In the case of `CCCCC(=O)O[C@]1(C(=O)CO)[C@@H](C)C[C@H]2[C@@H]3CCC4=CC(=O)C=C[C@]4(C)[C@@]3(F)[C@@H](O)C[C@@]21C` [BETAMETHASONE VALERATE], the AC50 in experiment [1] was above 10 µM; in experiment [2], above 30 µM; in experiment [3], above 30 µM; in experiment [4], above 10 µM.
Regarding `C/N=C(\NC)NCc1ccccc1` [BETHANIDINE], the concentration at half-maximal activity (AC50) in experiment [2], in experiment [3] and in experiment [4] was above 30 µM each time.
As to `CCC(C)C1(CC)C(=O)NC(=O)NC1=O` (stereo not drawn) [BUTABARBITAL], the half-maximal activity concentration (AC50) in experiment [2], in experiment [3] and in experiment [4] was above 30 µM throughout.
Regarding `COCC1=C(C(=O)O)N2C(=O)[C@@H](NC(=O)/C(=N\OC)c3csc(N)n3)[C@H]2SC1` [CEFPODOXIME], the concentration at half-maximal activity (AC50) in experiment [1], in experiment [2], in experiment [3] and in experiment [4] was above 30 µM in each case.
Turning to `CC1OC2(CS1)CN1CCC2CC1` (stereo not drawn) [CEVIMELINE], the concentration at half-maximal activity (AC50) in experiment [1] was above 10 µM; in experiment [3] it was above 30 µM.
For `CNC1=Nc2ccc(Cl)cc2C(c2ccccc2)=[N+]([O-])C1` [CHLORDIAZEPOXIDE], the half-maximal activity concentration (AC50) was above 10 µM in experiment [1], above 30 µM in experiment [2], above 30 µM in experiment [3] and above 10 µM in experiment [4].
`O=C(O)c1cn(C2CC2)c2cc(N3CCNCC3)c(F)cc2c1=O` [CIPROFLOXACIN] had a concentration at half-maximal activity (AC50) in experiment [2] above 30 µM.
Turning to `COc1cc(N)c(Cl)cc1C(=O)NC1CCN(Cc2ccccc2)CC1` [CLEBOPRIDE], the AC50 in experiment [1], in experiment [2], in experiment [3] and in experiment [4] was above 30 µM each time.
For the compound `Nc1ncn([C@H]2C[C@H](O)[C@@H](CO)O2)c(=O)n1` [DECITABINE], the half-maximal activity concentration (AC50) in experiment [1], in experiment [2] and in experiment [4] was above 30 µM each time.
In the case of `CC(C)(C)C(=O)OCC(=O)[C@H]1CC[C@H]2[C@@H]3CCC4=CC(=O)CC[C@]4(C)[C@H]3CC[C@]12C` [DESOXYCORTICOSTERONE PIVALATE], the half-maximal activity concentration (AC50) is above 10 µM in experiment [1], above 30 µM in experiment [3] and above 10 µM in experiment [4].
As to `CC(CCc1ccc(O)cc1)NCCc1ccc(O)c(O)c1` (stereo not drawn) [DOBUTAMINE], the AC50 in experiment [1] is above 30 µM; in experiment [2] it was above 30 µM; in experiment [3], 0.0054 µM; in experiment [4], above 30 µM.
`CCOC(=O)c1cncn1[C@H](C)c1ccccc1` [ETOMIDATE]: the AC50 in experiment [1] was above 10 µM; in experiment [3] it was above 30 µM; in experiment [4], above 10 µM.
Turning to `C[C@]12CCC(=O)C(O)=C1CC[C@@H]1[C@@H]2CC[C@]2(C)C(=O)CC[C@@H]12` [FORMESTANE], the concentration at half-maximal activity (AC50) in experiment [1], in experiment [2], in experiment [3] and in experiment [4] was above 30 µM each time.
On to `C[C@]12CC[C@@H]3c4ccc(O)cc4C[C@@H](CCCCCCCCC[S+]([O-])CCCC(F)(F)C(F)(F)F)[C@H]3[C@@H]1CC[C@@H]2O` (stereo partly drawn) [FULVESTRANT], for which the half-maximal activity concentration (AC50) in experiment [2], in experiment [3] and in experiment [4] was above 30 µM throughout.
Regarding `CCC1(c2ccccc2)CCC(=O)NC1=O` (stereo not drawn) [GLUTETHIMIDE], the values for the AC50 in experiment [1], in experiment [3] and in experiment [4] were above 10 µM, above 30 µM and above 10 µM, respectively.
As for `CC(C)NCC(O)c1ccc(O)c(O)c1` (stereo not drawn) [ISOPROTERENOL], the AC50 is above 10 µM in experiment [1], above 30 µM in experiment [2] and above 10 µM in experiment [4].
As to `Oc1ccc2c(c1)CC[C@H](c1ccccc1)[C@@H]2c1ccc(OCCN2CCCC2)cc1` [LASOFOXIFENE], the AC50 in experiment [2] was above 3 µM.
Take `CC(C(=O)O)c1ccc(CC2CCCC2=O)cc1` (stereo not drawn) [LOXOPROFEN]: the half-maximal activity concentration (AC50) in experiment [1], in experiment [2], in experiment [3] and in experiment [4] was above 30 µM in each case.
On to `C[C@H](Cc1ccc(O)c(O)c1)[C@@H](C)Cc1ccc(O)c(O)c1` [MASOPROCOL], for which the concentration at half-maximal activity (AC50) was above 10 µM in experiment [1], above 30 µM in experiment [3] and above 30 µM in experiment [4].
Consider `OC1(c2ccc(Cl)cc2)c2ccccc2C2=NCCN21` (stereo not drawn) [MAZINDOL], for which the concentration at half-maximal activity (AC50) in experiment [1] was above 10 µM; in experiment [2], above 30 µM; in experiment [3], above 30 µM; in experiment [4], above 30 µM.
Regarding `CC12CC3CC(C)(C1)CC(N)(C3)C2` [MEMANTINE], the AC50 was above 10 µM in experiment [1], above 30 µM in experiment [2], above 30 µM in experiment [3] and above 10 µM in experiment [4].
Take `CN(C)CCCNc1c2ccccc2nc2cccc([N+](=O)[O-])c12` [NITRACRINE]: the half-maximal activity concentration (AC50) is above 30 µM in experiment [1], above 30 µM in experiment [2], above 30 µM in experiment [3] and 16 µM in experiment [4].
On to `CCOC(=O)C1=C(C)NC(C)=C(C(=O)OC)C1c1cccc([N+](=O)[O-])c1` (stereo not drawn) [NITRENDIPINE], for which the half-maximal activity concentration (AC50) in experiment [1] was 0.0004 µM; in experiment [2] it was above 30 µM; in experiment [3] it was above 30 µM; in experiment [4], above 10 µM.
For the compound `C#C[C@]1(OC(C)=O)CC[C@H]2[C@@H]3CCC4=C/C(=N/O)CC[C@@H]4[C@H]3CC[C@@]21CC` [NORGESTIMATE], the AC50 in experiment [1], in experiment [2], in experiment [3] and in experiment [4] was above 30 µM in each case.
Take `[H]/N=C(/N)N/C(=N/[H])NCCc1ccccc1` [PHENFORMIN]: the concentration at half-maximal activity (AC50) in experiment [1] was above 30 µM; in experiment [2], above 30 µM; in experiment [4], above 10 µM.
Take `CCCCC1C(=O)N(c2ccccc2)N(c2ccccc2)C1=O` [PHENYLBUTAZONE]: the values for the AC50 in experiment [1], in experiment [2] and in experiment [4] were above 10 µM, above 30 µM and above 10 µM, respectively.
`CNCc1ccc(-c2[nH]c3cc(F)cc4c3c2CCNC4=O)cc1` [RUCAPARIB]: the figures for the AC50 in experiment [2] and in experiment [4] were above 30 µM and above 10 µM, respectively.
On to `Cc1noc(NS(=O)(=O)c2ccc(N)cc2)c1C` [SULFISOXAZOLE], for which the results for the half-maximal activity concentration (AC50) in experiment [1], in experiment [3] and in experiment [4] were above 10 µM, above 30 µM and above 10 µM, respectively.
Consider `CCC(=O)O[C@H]1CC[C@H]2[C@@H]3CCC4=CC(=O)CC[C@]4(C)[C@H]3CC[C@]12C` [TESTOSTERONE PROPIONATE], for which the figures for the AC50 in experiment [1], in experiment [3] and in experiment [4] were above 10 µM, above 30 µM and above 10 µM, respectively.
Consider `Cc1cc2cc3c(C)cc(=O)oc3c(C)c2o1` [TRIOXSALEN], for which the AC50 in experiment [1] and in experiment [4] was above 10 µM throughout.
As for `CC(C)[C@H](N)C(=O)OCC(CO)OCn1cnc2c(=O)nc(N)[nH]c21` (stereo partly drawn) [VALGANCICLOVIR], the AC50 in experiment [1], in experiment [2] and in experiment [4] was above 30 µM in each case.
In the case of `CCC(C)C(CC)C(N)=O` (stereo not drawn) [VALNOCTAMIDE], the AC50 in experiment [2], in experiment [3] and in experiment [4] was above 30 µM in each case.
Take `CCOC(=O)C1=C[C@]2(CC)CCCN3CCc4c(n1c1ccccc41)[C@@H]32` [VINPOCETINE]: the concentration at half-maximal activity (AC50) in experiment [2] and in experiment [3] was above 30 µM each time.
